Measurements from US6638973B2, “Taxane formulations” (FSU Research Foundation, Inc., priority 2000, dated 2003).
pIC50: −log10 of the molar value.

What follows are compounds tested on HCT116 cells (assay: In vitro cytotoxicity measured by the cell colony formation assay). Details: HCT116 cells, 72 h drug incubation, colonies counted after 7 days; ID50 = drug concentration producing 50% inhibition of colony formation; read-out: IN VITRO ID 50 (nm) HCT116.
Type: cell-based
Procedure, shortened: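 Colony-forming survival was scored 7 days after a 72 h, 37 °C compound exposure followed by washout into fresh medium.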

Row | SMILES | pIC50
1 | CC=CC(=O)NC(c1ccco1)C(O)C(=O)OC1CC2(O)C(OC(=O)c3ccccc3)C3C4(OC(C)=O)COC4CC(OC(=O)Nc4ccc(F)c(F)c4)C3(C)C(=O)C(O)C(=C1C)C2(C)C (stereo not drawn) [Compound 5800] | > 8.00
2 | CCNC(=O)O[C@H]1C[C@H]2OC[C@@]2(OC(C)=O)C2[C@H](OC(=O)c3ccccc3)[C@]3(O)C[C@H](OC(=O)[C@H](O)[C@@H](NC(=O)C=C(C)C)c4ccco4)C(C)=C([C@@H](O)C(=O)[C@@]21C)C3(C)C (stereo partly drawn) [Compound 5588] | > 9.00
3 | CCC(C)(C)OC(=O)N[C@@H](c1ccco1)[C@@H](O)C(=O)O[C@H]1C[C@@]2(O)[C@@H](OC(=O)c3ccccc3)C3[C@](C)(C(=O)[C@H](O)C(=C1C)C2(C)C)[C@@H](OC(=O)Nc1ccc(F)c(F)c1)C[C@H]1OC[C@@]31OC(C)=O (stereo partly drawn) [Compound 6404] | > 8.00
4 | C/C=C/C(=O)N[C@@H](c1ccco1)[C@@H](O)C(=O)O[C@H]1C[C@@]2(O)[C@@H](OC(=O)c3ccccc3)C3[C@](C)(C(=O)[C@H](O)C(=C1C)C2(C)C)[C@@H](OC(=O)NC1CCCCC1)C[C@H]1OC[C@@]31OC(C)=O (stereo partly drawn) [Compound 5895] | > 9.00

Same assay, conditions: HCT116 cells, 72 h incubation with drug, colonies counted after 7 days; ID50 = drug concentration producing 50% inhibition of colony formation; read-out: IN VITRO ID 50 (nm) HCT116

Row | SMILES | pIC50
5 | C/C=C/C(=O)N[C@@H](c1ccoc1)[C@@H](O)C(=O)O[C@H]1C[C@@]2(O)[C@@H](OC(=O)c3ccccc3)C3[C@](C)(C(=O)[C@H](O)C(=C1C)C2(C)C)[C@@H](OC(=O)OC)C[C@H]1OC[C@@]31OC(C)=O (stereo partly drawn) [Compound 4877] | > 9.00
6 | CCOC(=O)O[C@H]1C[C@H]2OC[C@@]2(OC(C)=O)C2[C@H](OC(=O)c3ccccc3)[C@]3(O)C[C@H](OC(=O)[C@H](O)[C@@H](NC(=O)C=C(C)C)c4cccs4)C(C)=C([C@@H](O)C(=O)[C@@]21C)C3(C)C (stereo partly drawn) [Compound 4164] | > 9.00
7 | CC(=O)O[C@@]12CO[C@@H]1C[C@H](OC(=O)OCc1ccccc1)[C@@]1(C)C(=O)[C@H](O)C3=C(C)[C@@H](OC(=O)[C@H](O)[C@@H](NC(=O)OC(C)(C)C)c4ccco4)C[C@@](O)([C@@H](OC(=O)c4ccccc4)C12)C3(C)C (stereo partly drawn) [Compound 5433] | > 9.00
8 | CCOC(=O)O[C@H]1C[C@H]2OC[C@@]2(OC(C)=O)C2[C@H](OC(=O)c3ccccc3)[C@]3(O)C[C@H](OC(=O)[C@H](O)[C@@H](NC(=O)OC(C)(C)C)C4CC4)C(C)=C([C@@H](O)C(=O)[C@@]21C)C3(C)C (stereo partly drawn) [Compound 5165] | > 9.00
9 | COC(=O)O[C@H]1C(=O)[C@@]2(C)C([C@H](OC(=O)c3ccccc3)[C@]3(O)C[C@H](OC(=O)[C@H](O)[C@@H](NC(=O)OC(C)(C)C)C(C)C)C(C)=C1C3(C)C)[C@]1(OC(C)=O)CO[C@@H]1C[C@@H]2O (stereo partly drawn) [Compound 2060] | > 8.00
10 | CCOC(=O)OC1C(=O)C2(C)C(O)CC3OCC3(OC(C)=O)C2C(OC(=O)c2ccccc2)C2(O)CC(OC(=O)C(O)C(NC(=O)OC(C)(C)C)c3cccs3)C(C)=C1C2(C)C (stereo not drawn) [Compound 1755] | > 9.00
11 | CCOC(=O)O[C@H]1C(=O)[C@@]2(C)C([C@H](OC(=O)c3ccccc3)[C@]3(O)C[C@H](OC(=O)[C@H](O)[C@@H](NC(=O)OC(C)C)c4ccco4)C(C)=C1C3(C)C)[C@]1(OC(C)=O)CO[C@@H]1C[C@@H]2O (stereo partly drawn) [Compound 3963] | > 9.00
12 | COC(=O)O[C@H]1C[C@H]2OC[C@@]2(OC(C)=O)C2[C@H](OC(=O)c3ccccc3)[C@]3(O)C[C@H](OC(=O)[C@H](O)[C@@H](NC(=O)c4cccs4)c4cccs4)C(C)=C([C@@H](O)C(=O)[C@@]21C)C3(C)C (stereo partly drawn) [Compound 4424] | > 9.00

Same assay, conditions: HCT116 cells, colony formation, 72 h incubation with drug, colonies counted after 7 days; ID50 = drug concentration producing 50% inhibition of colony formation; read-out: IN VITRO ID 50 (nm) HCT116

Row | SMILES | pIC50
13 | CCNC(=O)O[C@H]1C(=O)[C@@]2(C)C([C@H](OC(=O)c3ccccc3)[C@]3(O)C[C@H](OC(=O)[C@H](O)[C@@H](NC(=O)OC(C)(C)C)c4ccc([N+](=O)[O-])cc4)C(C)=C1C3(C)C)[C@]1(OC(C)=O)CO[C@@H]1C[C@@H]2O (stereo partly drawn) [Compound 2743] | > 9.00
14 | CCNC(=O)O[C@H]1C(=O)[C@@]2(C)C([C@H](OC(=O)c3ccccc3)[C@]3(O)C[C@H](OC(=O)[C@H](O)[C@@H](NC(=O)OC(C)(C)C)c4ccoc4)C(C)=C1C3(C)C)[C@]1(OC(C)=O)CO[C@@H]1C[C@@H]2O (stereo partly drawn) [Compound 2717] | > 9.00

Same assay, conditions: HCT116 colony formation; 72 h drug incubation, colonies counted after 7 days; Example 5, C-7 ester/C-10 hydroxy taxanes; read-out: IN VITRO ID 50 (nm) HCT116

Row | SMILES | pIC50
15 | CCCC(=O)N[C@@H](c1cccs1)[C@@H](O)C(=O)O[C@H]1C[C@@]2(O)[C@@H](OC(=O)c3ccccc3)C3[C@](C)(C(=O)[C@H](O)C(=C1C)C2(C)C)[C@@H](OC(=O)CC)C[C@H]1OC[C@@]31OC(C)=O (stereo partly drawn) [Compound 3327] | > 8.00
16 | CCCCC(=O)O[C@H]1C[C@H]2OC[C@@]2(OC(C)=O)C2[C@H](OC(=O)c3ccccc3)[C@]3(O)C[C@H](OC(=O)[C@H](O)[C@@H](NC(=O)OC=C(C)C)c4ccco4)C(C)=C([C@@H](O)C(=O)[C@@]21C)C3(C)C (stereo partly drawn) [Compound 6141] | > 9.00
17 | CCC(=O)O[C@H]1C[C@H]2OC[C@@]2(OC(C)=O)C2[C@H](OC(=O)c3ccccc3)[C@]3(O)C[C@H](OC(=O)[C@H](O)[C@@H](NC(=O)OC(C)(C)C)c4ccoc4)C(C)=C([C@@H](O)C(=O)[C@@]21C)C3(C)C (stereo partly drawn) [Compound 1401] | > 9.00
18 | C/C=C/C(=O)N[C@@H](c1cccs1)[C@@H](O)C(=O)O[C@H]1C[C@@]2(O)[C@@H](OC(=O)c3ccccc3)C3[C@](C)(C(=O)[C@H](O)C(=C1C)C2(C)C)[C@@H](OC(=O)CC)C[C@H]1OC[C@@]31OC(C)=O (stereo partly drawn) [Compound 3560] | > 9.00
19 | C/C=C/C(=O)N[C@@H](c1ccsc1)[C@@H](O)C(=O)O[C@H]1C[C@@]2(O)[C@@H](OC(=O)c3ccccc3)C3[C@](C)(C(=O)[C@H](O)C(=C1C)C2(C)C)[C@@H](OC(=O)CC)C[C@H]1OC[C@@]31OC(C)=O (stereo partly drawn) [Compound 5020] | > 9.00
20 | CCCC(=O)O[C@H]1C[C@H]2OC[C@@]2(OC(C)=O)C2[C@H](OC(=O)c3ccccc3)[C@]3(O)C[C@H](OC(=O)[C@H](O)[C@@H](NC(=O)OCC(C)C)C4CC4)C(C)=C([C@@H](O)C(=O)[C@@]21C)C3(C)C (stereo partly drawn) [Compound 5202] | > 8.00
21 | CCCC(=O)O[C@H]1C[C@H]2OC[C@@]2(OC(C)=O)C2[C@H](OC(=O)c3ccccc3)[C@]3(O)C[C@H](OC(=O)[C@H](O)[C@H](C=C(C)C)NC(=O)OCC(C)C)C(C)=C([C@@H](O)C(=O)[C@@]21C)C3(C)C (stereo partly drawn) [Compound 5131] | > 8.00
22 | C/C=C/C(=O)N[C@@H](c1ccco1)[C@@H](O)C(=O)O[C@H]1C[C@@]2(O)[C@@H](OC(=O)c3ccccc3)C3[C@](C)(C(=O)[C@H](O)C(=C1C)C2(C)C)[C@@H](OC(=O)CCC)C[C@H]1OC[C@@]31OC(C)=O (stereo partly drawn) [Compound 4737] | > 9.00

Same assay, conditions: HCT116 colony formation; 72 h drug incubation, colonies counted after 7 days; Example 10, C-10 ester/C-7 hydroxy taxanes; read-out: IN VITRO ID 50 (nm) HCT116

Row | SMILES | pIC50
23 | CC(=O)OC12COC1CC(O)C1(C)C(=O)C(OC(=O)c3cccs3)C3=C(C)C(OC(=O)C(O)C(C=C(C)C)NC(=O)OC(C)(C)C)CC(O)(C(OC(=O)c4ccccc4)C21)C3(C)C (stereo not drawn) [Compound 1879] | > 8.00
24 | CCCC(=O)OC1C(=O)C2(C)C(O)CC3OCC3(OC(C)=O)C2C(OC(=O)c2ccccc2)C2(O)CC(OC(=O)C(O)C(NC(=O)OC(C)(C)C)c3ccccc3)C(C)=C1C2(C)C (stereo not drawn) [Compound 1060] | > 9.00
25 | CC(=O)O[C@@]12CO[C@@H]1C[C@H](O)[C@@]1(C)C(=O)[C@H](OC(=O)C3CC3)C3=C(C)[C@@H](OC(=O)[C@H](O)[C@@H](NC(=O)OC(C)(C)C)c4ccc([N+](=O)[O-])cc4)C[C@@](O)([C@@H](OC(=O)c4ccccc4)C12)C3(C)C (stereo partly drawn) [Compound 0879] | > 9.00
26 | CC(=O)O[C@@]12CO[C@@H]1C[C@H](O)[C@@]1(C)C(=O)[C@H](OC(=O)C3CC3)C3=C(C)[C@@H](OC(=O)[C@H](O)[C@H](C=C(C)C)NC(=O)OC(C)(C)C)C[C@@](O)([C@@H](OC(=O)c4ccccc4)C12)C3(C)C (stereo partly drawn) [Compound 0838] | > 9.00
27 | CCCC(=O)O[C@H]1C(=O)[C@@]2(C)C([C@H](OC(=O)c3ccccc3)[C@]3(O)C[C@H](OC(=O)[C@H](O)[C@@H](NC(=O)c4ccccc4)c4ccco4)C(C)=C1C3(C)C)[C@]1(OC(C)=O)CO[C@@H]1C[C@@H]2O (stereo partly drawn) [Compound 3204] | > 9.00
28 | CC(=O)O[C@@]12CO[C@@H]1C[C@H](O)[C@@]1(C)C(=O)[C@H](OC(=O)C3CC3)C3=C(C)[C@@H](OC(=O)[C@H](O)[C@@H](NC(=O)c4ccccc4)c4cccs4)C[C@@](O)([C@@H](OC(=O)c4ccccc4)C12)C3(C)C (stereo partly drawn) [Compound 0919] | > 9.00
29 | CC(=O)OC12COC1CC(O)C1(C)C(=O)C(OC(=O)c3cccs3)C3=C(C)C(OC(=O)C(O)C(NC(=O)OC(C)(C)C)c4ccoc4)CC(O)(C(OC(=O)c4ccccc4)C21)C3(C)C (stereo not drawn) [Compound 1923] | > 9.00
30 | CCCC(=O)O[C@H]1C(=O)[C@@]2(C)C([C@H](OC(=O)c3ccccc3)[C@]3(O)C[C@H](OC(=O)[C@H](O)[C@@H](NC(=O)OCC)c4ccco4)C(C)=C1C3(C)C)[C@]1(OC(C)=O)CO[C@@H]1C[C@@H]2O (stereo partly drawn) [Compound 3693] | > 9.00
31 | CC(=O)O[C@@]12CO[C@@H]1C[C@H](O)[C@@]1(C)C(=O)[C@H](OC(=O)C(C)C)C3=C(C)[C@@H](OC(=O)[C@H](O)[C@@H](NC(=O)OC(C)(C)C)c4ccsc4)C[C@@](O)([C@@H](OC(=O)c4ccccc4)C12)C3(C)C (stereo partly drawn) [Compound 2291] | > 9.00
32 | CCC(=O)O[C@H]1C(=O)[C@@]2(C)C([C@H](OC(=O)c3ccccc3)[C@]3(O)C[C@H](OC(=O)[C@H](O)[C@@H](NC(=O)c4ccccc4)C(C)C)C(C)=C1C3(C)C)[C@]1(OC(C)=O)CO[C@@H]1C[C@@H]2O (stereo partly drawn) [Compound 0719] | > 8.00

Same assay, conditions: HCT116 colony formation; 72 h drug incubation, colonies counted after 7 days; Example 15, C-7 substituted acetate/C-10 hydroxy taxanes; read-out: IN VITRO ID 50 (nm) HCT116

Row | SMILES | pIC50
33 | COCC(=O)O[C@H]1C[C@H]2OC[C@@]2(OC(C)=O)C2[C@H](OC(=O)c3ccccc3)[C@]3(O)C[C@H](OC(=O)[C@H](O)[C@@H](NC(=O)OC(C)(C)C)c4ccco4)C(C)=C([C@@H](O)C(=O)[C@@]21C)C3(C)C (stereo partly drawn) [Compound 5445] | > 9.00
